# According to US20110306554A1, “PEPTIDE CAPABLE OF BINDING TO IMMUNOGLOBULIN” (priority 2009, published 2011):
# Entries after “also recorded” stand apart in the source; their conditions may differ.
# Legend:
# [1] = tested on: Monoclonal antibody cocktail-induced arthritis mice; test: Arthritis suppressing effects on arthritis-induced mice, Part 2; format: in vivo; details: 10 mg/kg intraperitoneal twice a day, 14 consecutive days from day 0
# Method: Monoclonal antibody cocktail-induced arthritis mice were used to examine arthritis suppressing effects of peptides which are indicated as R1, R2, and R5 in Example 2. Arthritis was caused by intravenous administration of 2 mg/mouse of an arthritis-inducing monoclonal antibody cocktail and three days later, intraperitoneal administration of 50 μg/mouse of LPS. The peptides were administered at a dose of 10 mg/kg twice a day for a period of 14 consecutive days from the day of administration of the arthritis-inducing monoclonal antibody cocktail (day 0), and arthritis suppressing effect was examined in terms of clinical score. Experiments were carried out in a similar way to those in the section (1) in Example 3.
# The required amount was calculated for each peptide, based on the animal weight. Each peptide solution was prepared to make a concentration of 1 mg/ml in a 0.5% methyl cellulose solution, and the prepared peptide solution was cold stored.
# Measurement of body weight of animals was made on days 0, 3, 6, 9, 12, and 14 during the study period, with day 0 being the day of administration of the arthritis-inducing monoclonal antibody cocktail. Observation of general condition was made on a daily basis.
# Mice were weighed on the day prior to start of administration and randomly assigned to groups using a grouping software, so that the average body weight values of the groups were approximately equal. To twenty 7-week-old mice, the arthritis-inducing monoclonal antibody cocktail was intravenously administered at a dose of 2 mg/mouse on day 0, and LPS was intraperitoneally administered at a dose of 50 μg/mouse on day 3.
# Each peptide solution was given via intraperitoneal administration twice a day, morning and afternoon, from day 0. As a control, a 0.5% solution of methyl cellulose was intraperitoneally administered twice a day from day 0. A needle (26G; Terumo) and a syringe (1.0-ml capacity; Terumo) were used for administration. […]
# Results of examinations were expressed by mean value±standard error and analyzed using EXSAS (Version 7.1.6, Arm Systex Co., Ltd.). […]
# [2] = tested on: Cy3-labeled goat anti-mouse immunoglobulin (IgG); test: Peptide array of C1q subunit 15-mers probed with Cy3-labeled immunoglobulin; format: binding; details: peptide spots on glass array, 4° C., 12 hours, background fluorescence intensity is 2.6
# Excerpt: The amino acid sequences of the A, B, and C subunit chains of human C1q, are shown in SEQ ID NOs: 17 to 19, and the nucleotide sequences in SEQ ID NOs: 20 to 22. Based on each of the amino acid sequences, sequences having 15 amino acids (residues) from each subunit and shifted at intervals of three amino acids, were synthesized on a glass array as synthetic peptides (Peptide Nos. 1 to […], and 193 to 270 for the A, B, and C chains, respectively). The synthesis of each peptide was carried out at a specific location on the array, so as to prepare a peptide array which included the synthetic peptides covering the entire amino acid sequences of the subunits of C1q. The preparation of the array was outsourced to JPT Peptide Technologies GmbH.
# To the peptide array was applied 330 μl of an Cy3-labeled goat anti-mouse immunoglobulin (IgG) (1 mg/ml; Zymed Laboratories) diluted 1000-fold with PBS (10 mM phosphate buffer, pH 7.0, 0.1 M NaCl), and the array was sealed and then incubated at 4° C. for 12 hours. After that, the array was washed once with methanol and then 5 times with Milli-Q water for 5 minutes each. The array slide was centrifuged and dried, and scanned with a fluorescence scanner (Agilent DNA microarray scanner; Agilent Technologies), so that fluorescence intensity was quantified at the respective peptide spots on the array using a software (Feature Extraction software; Agilent Technologies). Several spots displaying strong fluorescence intensities were detected. […] Note that in the description, the amino acids are denoted by the one-letter code known in the art.
sequence,measurement,setting,value
STGKFTCKVPGLYYF (Immunoglobulin binding peptide) [R5],arthritis suppressing effect (clinical score),[1],Arthritis suppressing effects were observed; also recorded: arthritis was suppressed
same,Fluorescence intensity,[2],"65,311"
